The source made the active and inactive calls. The rule behind the calls is not given here.
What was measured:
[1] = system: B16-F10; assay: Antitumor activity against mouse B16-F10 cells implanted in C57BL/6J mouse assessed as tumor growth inhibition at 40 mg/kg, ip administered once daily for 9 days; format: functional; conditions: B16-F10, 216 h, time 9 day, read-out: TGI
[2] = molecular target: Programmed cell death protein 1/Programmed cell death 1 ligand 1 (Homo sapiens) (UniProt Q15116+Q9NZQ7); assay: Inhibition of PD-1/PD-L1 (unknown origin) interaction assessed as inhibition rate at 0.1 uM by HTRF assay relative to control; format: protein-complex assay
[3] = system: A-375; assay: Antiproliferative activity against human A-375 cells assessed as cell viability incubated for 48 hrs by MTT assay; format: functional, cell-based
[4] = system: B16-F10; assay: Antiproliferative activity against mouse B16-F10 cells assessed as cell growth inhibition incubated for 48 hrs by MTT assay; format: functional, cell-based; conditions: B16-F10, 48 h
[5] = system: B16-F10; assay: Induction of apoptosis in mouse B16-F10 cells assessed as necrotic cells at 1 uM incubated for 48 hrs by Annexin V-FITC/PI staining based flow cytometry analysis (reference value: 2.24%); format: functional
[6] = system: B16-F10; assay: Induction of cell cycle arrest in mouse B16-F10 cells assessed as accumulation of cells at S phase at 8 uM incubated for 48 hrs by PI staining based flow cytometry analysis (reference value: 24.04%); format: functional
[7] = system: B16-F10; assay: Induction of apoptosis in mouse B16-F10 cells assessed as early apoptotic cells at 1 uM incubated for 48 hrs by Annexin V-FITC/PI staining based flow cytometry analysis (reference value: 0.45 %); format: functional
[8] = system: B16-F10; assay: Induction of apoptosis in mouse B16-F10 cells assessed as viable cells at 8 uM incubated for 48 hrs by Annexin V-FITC/PI staining based flow cytometry analysis (reference value: 92.3%); format: functional; conditions: read-out: Activity
[9] = system: B16-F10; assay: Immunomodulatory activity in mouse B16-F10 cells implanted in C57BL/6J mouse assessed as percentage of CD3 positive CD8 positive cells in tumor at 40 mg/kg, ip administered once daily for 9 days by flow cytometric analysis (reference value: 0.44 %); format: functional; conditions: time 9 day
[10] = molecular target: T1, Histone deacetylase 3 (Mus musculus) (UniProt O88895); assay: Inhibition of HDAC3 in mouse B16-F10 cells assessed as upregulation of Ac-H3 level incubated for 24 hrs by Western blotting analysis; format: cell-based; conditions: dose 1-8 µM
T1 sequence (whole entry): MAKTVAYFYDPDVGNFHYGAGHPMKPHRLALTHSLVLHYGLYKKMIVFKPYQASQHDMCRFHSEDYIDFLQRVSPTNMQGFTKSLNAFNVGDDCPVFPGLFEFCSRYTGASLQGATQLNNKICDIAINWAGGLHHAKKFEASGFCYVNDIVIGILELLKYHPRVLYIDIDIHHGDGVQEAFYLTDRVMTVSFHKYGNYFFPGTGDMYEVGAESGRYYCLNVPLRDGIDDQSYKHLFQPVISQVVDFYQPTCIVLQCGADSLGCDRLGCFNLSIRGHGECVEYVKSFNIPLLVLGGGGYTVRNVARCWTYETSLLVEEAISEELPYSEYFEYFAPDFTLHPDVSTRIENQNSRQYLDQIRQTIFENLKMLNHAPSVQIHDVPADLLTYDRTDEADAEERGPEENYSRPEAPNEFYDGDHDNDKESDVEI

[11] = molecular target: T1, Histone deacetylase 3 (Mus musculus); assay: Inhibition of HDAC3 in mouse B16-F10 cells assessed as upregulation of Ac-H3 level at 3 uM incubated for 24 hrs by Western blotting analysis; format: cell-based
[12] = system: HCT-116; assay: Antiproliferative activity against human HCT-116 cells assessed as cell growth inhibition incubated for 48 hrs by MTT assay; format: functional, cell-based; conditions: HCT-116, 48 h
[13] = system: B16-F10; assay: Induction of apoptosis in mouse B16-F10 cells assessed as necrotic cells at 2 uM incubated for 48 hrs by Annexin V-FITC/PI staining based flow cytometry analysis (reference value: 2.24%); format: functional
[14] = system: MDA-MB-231; assay: Antiproliferative activity against human MDA-MB-231 cells assessed as cell growth inhibition incubated for 48 hrs by MTT assay; format: functional, cell-based; conditions: MDA-MB-231, 48 h
[15] = system: B16-F10; assay: Induction of apoptosis in mouse B16-F10 cells assessed as viable cells at 10 uM incubated for 48 hrs by Annexin V-FITC/PI staining based flow cytometry analysis (reference value: 92.3%); format: functional; conditions: read-out: Activity
[16] = system: B16-F10; assay: Induction of apoptosis in mouse B16-F10 cells assessed as viable cells at 2 uM incubated for 48 hrs by Annexin V-FITC/PI staining based flow cytometry analysis (reference value: 92.3%); format: functional; conditions: read-out: Activity
[17] = system: B16-F10; assay: Induction of cell cycle arrest in mouse B16-F10 cells assessed as accumulation of cells at G0/G1 phase at 1 uM incubated for 48 hrs by PI staining based flow cytometry analysis (reference value: 70.09%); format: functional

CCCNNC(=O)CCCNCc1ccc(-c2cccc(-c3ccccc3)c2C)nc1OC
inhibition in vivo at 40 mg/kg [1]: 66.5%
inhibition [2]: 55.4%
Activity [3]: Active
IC50 [4]: 2.33 µM
Activity [5]: 2.63%
Activity [6]: 0.5%
Activity [7]: 3.34%
viability at 8 µM [8]: 53.6%
Activity [9]: 5.08%
inhibition [10]: Dose-dependent-effect
inhibition [11]: Active
IC50 [12]: 2.86 µM
Activity [13]: 4.4%
IC50 [14]: 3.01 µM
viability at 10 µM [15]: 31.3%
viability at 2 µM [16]: 71.7%
Activity [17]: 73.46%
